Results taken from US20150105252A1, “SUBSTITUTED PYRAZOLES AS HERBICIDES” (E I DU PONT DE NEMOURS AND COMPANY, priority 2013, published 2015).

Experiments:
crabgrass, large [1] = assay: Test A preemergence; type: in vivo, Digitaria sanguinalis; settings: preemergence
Outline: (§1)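 Greenhouse test in loam soil/sand blend; compounds formulated in non-phytotoxic solvent with surfactant, applied as preemergence directed soil spray or postemergence to plants 2–10 cm tall at one- to two-leaf stage. Injury rated visually versus untreated controls after approximately 10 days on a 0 (no effect) to 100 (complete control) scale.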

foxtail, giant [2] = assay: Test A preemergence; type: in vivo, Setaria faberii; settings: preemergence
Outline: as §1

velvetleaf [3] = assay: Test A preemergence; type: in vivo, Abutilon theophrasti; settings: preemergence
Outline: as §1

foxtail, giant [4] = assay: Test A postemergence; type: in vivo, Setaria faberii
Outline: as §1

morningglory = assay: Test A postemergence; type: in vivo, Ipomoea spp.; settings: Postemergence
Outline: as §1

rice = assay: Test B flood; type: in vivo, Oryza sativa; settings: 250 g ai/ha, visual rating on 0 to 100 scale (0 no effect, 100 complete control), 13 to 15 days
Outline: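 Paddy-water application: seedlings at 2-leaf stage, flood depth 3 cm maintained for the test duration. Evaluation after 13–15 days in the greenhouse by eye relative to controls; 0–100 scale.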

nutsedge, yellow = assay: Test C preemergence; type: in vivo, Cyperus esculentus; settings: preemergence
Outline: (§2)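 Herbicidal effect is expressed as percent visual control (0–100) judged against untreated plants 13 to 15 days after treatment in the greenhouse. Preemergence pots contained seeds in a soil–sand blend; postemergence plants, 2–18 cm tall, grew in peat-based planting medium.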

barnyardgrass = assay: Test C preemergence; type: in vivo, Echinochloa crus-galli; settings: preemergence
Outline: as §2

waterhemp = assay: Test C preemergence; type: in vivo, Amaranthus rudis; settings: preemergence
Outline: as §2

galium = assay: Test C postemergence; type: in vivo, Galium aparine
Outline: as §2

corn = assay: Test C postemergence; type: in vivo, Zea mays
Outline: as §2

crabgrass, large [5] = assay: Test C postemergence; type: in vivo, Digitaria sanguinalis
Outline: as §2

velvetleaf [6] = assay: Test C postemergence; type: in vivo, Abutilon theophrasti; settings: postemergence
Outline: as §2

[7] = 125 g ai/ha, visual injury approx. 10 days after treatment
[8] = 500 g ai/ha, visual injury after approx. 10 days, 0 to 100 scale (0 no effect, 100 complete control)
[9] = 31 g ai/ha, visual rating, scale 0 to 100 (0 no effect, 100 complete control), 13 to 15 days
[10] = 62 g ai/ha, scale 0 to 100 (0 no effect, 100 complete control), 13 to 15 days
[11] = 125 g ai/ha, 13 to 15 days, scale 0 to 100, 0 = no effect, 100 = complete control
[12] = 250 g ai/ha, scale 0 to 100, 0 is no effect, 100 is complete control
[13] = Postemergence, 31 g ai/ha, visually evaluated after 13 to 15 days
[14] = postemergence, 62 g ai/ha, scale 0 to 100
[15] = postemergence, 250 g ai/ha, scale 0 to 100 (0 no effect, 100 complete control)
[16] = postemergence, 125 g ai/ha, scale 0 to 100, 0 no effect, 100 complete control

Compound: Cc1cc(C(=O)NC(C)C)nn1Cc1ccnc(C(F)(F)F)c1 [Compound 197]
- Crabgrass, Large plant response rating (0 to 100 scale) (crabgrass, large [1]; [7]): 100
- Crabgrass, Large plant response rating (crabgrass, large [1]; [8]): 100
- Foxtail, Giant plant response rating (0 to 100 scale) (foxtail, giant [2]; [7]): 100
- Foxtail, Giant plant response rating (foxtail, giant [2]; [8]): 100
- Velvetleaf plant response rating (0 to 100 scale) (velvetleaf [3]; [7]): 70
- Velvetleaf plant response rating (velvetleaf [3]; [8]): 100
- Foxtail, Giant plant response rating (foxtail, giant [4]; Postemergence, 500 g ai/ha, 0 to 100 scale (0 no effect, 100 complete control)): 90
- Foxtail, Giant plant response rating (foxtail, giant [4]; postemergence, 125 g ai/ha, about 10 days, visual rating on 0 to 100 scale (0 no effect, 100 complete control)): 80
- Morningglory plant response rating (morningglory; 125 g ai/ha, 0 to 100 scale, 0 no effect, 100 complete control): 80
- Morningglory plant response rating (morningglory; 500 g ai/ha, 0 to 100 scale (0 no effect, 100 complete control)): 100
- Plant response rating, Rice (rice): 10
- Nutsedge, Yellow plant response rating (nutsedge, yellow; [9]): 0
- Nutsedge, Yellow plant response rating (nutsedge, yellow; [10]): 25
- Plant response rating, Nutsedge, Yellow (nutsedge, yellow; [11]): 75
- Nutsedge, Yellow plant response rating (nutsedge, yellow; [12]): 85
- Barnyardgrass plant response rating (barnyardgrass; [9]): 65
- Barnyardgrass plant response rating (barnyardgrass; [10]): 98
- Plant response rating, Barnyardgrass (barnyardgrass; [11]): 100
- Barnyardgrass plant response rating (barnyardgrass; [12]): 100
- Waterhemp plant response rating (waterhemp; [9]): 100
- Waterhemp plant response rating (waterhemp; [10]): 100
- Plant response rating, Waterhemp (waterhemp; [11]): 100
- Waterhemp plant response rating (waterhemp; [12]): 100
- Plant response rating (scale of 0 to 100 where 0 is no effect and 100 is complete control), Galium (galium; [13]): 40
- Galium plant response rating (galium; [14]): 50
- Plant response rating, Galium (galium; [15]): 85
- Plant response rating, Galium (galium; [16]): 50
- Plant response rating (scale of 0 to 100 where 0 is no effect and 100 is complete control), Corn (corn; [13]): 5
- Corn plant response rating (corn; [14]): 5
- Plant response rating, Corn (corn; [15]): 10
- Plant response rating, Corn (corn; [16]): 5
- Plant response rating (scale of 0 to 100 where 0 is no effect and 100 is complete control), Crabgrass, Large (crabgrass, large [5]; [13]): 5
- Crabgrass, Large plant response rating (crabgrass, large [5]; [14]): 5
- Plant response rating, Crabgrass, Large (crabgrass, large [5]; [15]): 15
- Plant response rating, Crabgrass, Large (crabgrass, large [5]; [16]): 10
- Plant response rating, Velvetleaf (velvetleaf [6]; 250 g ai/ha, scale 0 to 100 (0 no effect, 100 complete control)): 40
- Velvetleaf plant response rating (velvetleaf [6]; scale 0 to 100): 40
